Test results from paper PMC11481179, “Development and Application of Reversible and Irreversible Covalent Probes for Human and Mouse Cathepsin‐K Activity Detection, Revealing Nuclear Activity” (Advanced Science, 2024).

Experiments:
CTSS = CTSS (Homo sapiens, UniProt P25774); test: Recombinant cathepsin inhibition, residual activity labeled by pan cathepsin probe GB123, in-gel fluorescence; type: biochemical; settings: even at 10 µM
Description: (§1) Figure 1 In vitro evaluation of CTSK targeted compounds. a) Labeling of recombinant cathepsins by ABPs. Recombinant cathepsins were treated with increasing concentrations of ABPs for 1 h. Samples were separated by SDS‐PAGE and scanned for fluorescence by a Typhoon scanner at 635/670 nm. All probes show dose‐dependent binding to the CTSK, and have lower affinity to CTSS except GD36, b) CTSK [0.5–280 ng] was labeled with the indicated ABPs [5 µM]. Incubations were performed for 1 h at 37 °C, at pH 5.5. Samples were analyzed as described in (a). c) Recombinant cathepsins B, K, L, and S [0.5 µM] were first treated with the indicated concentrations of the inhibitor GD30 or vehicle for 1 h followed by incubation with a pan cathepsin probe GB123 [1 µM] for 1 h. Samples were analyzed as described in (a). d) Quantitative analysis of CTSK inhibition by GD30 presented in (d), data represent mean values ± standard error, n = 3. e) IC50 plot of GD30 inhibition of CTSK activity.
(§2) To further evaluate the probes for their selectivity, we applied a potent and selective covalent inhibitor, Compound 6 (GD30); the inhibitor was generated as a precursor of GD32 and GD36. GD30 was evaluated for its ability to block cathepsin activities by preincubating it with each recombinant enzyme before labeling it by a pan cathepsin ABP, GB123. […]
(§3) Recombinant cathepsin inhibition: Recombinant human CTSL, CTSB, CTSK, and CTSS (0.5 µM) were pretreated with different concentrations of inhibitors (GD30, ODN) for 1 h in reaction buffer (50 mM acetate, 4 mM DTT and 5 mM MgCl2, pH 5.5) at 37 °C. GB123, 1 µM, was added, and incubated with samples for 1 h at 37 °C. The reaction was stopped by the addition of sample buffer 4x (40% glycerol, 0.2 M Tris/HCl pH 6.8, 20% beta-mercaptoethanol, 12% SDS, and 0.4 mg/ml bromophenol blue). Samples were then boiled at 95 °C for 2 mins, separated on a 12.5% SDS gel, and scanned for fluorescence by a Typhoon scanner FLA 9500 at excitation/emission wavelengths of 635/670 nm.
(§4) Recombinant cathepsin labeling: Recombinant human CTSL, CTSB, CTSK, and CTSS (0.5 µM) were pretreated with different concentrations of probes (GD32, GD36, GD37, or GD42)

CTSK [1] = target: T1, CTSK (Homo sapiens, UniProt P43235); test: as above; type: biochemical; settings: CTSK 0.5 µM, 1 h preincubation, then GB123 1 µM 1 h, pH 5.5
T1 sequence (P43235 115-329): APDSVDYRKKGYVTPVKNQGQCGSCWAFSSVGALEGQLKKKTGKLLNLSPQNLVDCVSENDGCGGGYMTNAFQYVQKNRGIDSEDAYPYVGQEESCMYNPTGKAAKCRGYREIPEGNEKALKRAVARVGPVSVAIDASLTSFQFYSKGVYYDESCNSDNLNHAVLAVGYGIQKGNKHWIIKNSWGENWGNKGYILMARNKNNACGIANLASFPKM
Description: as §1, §2, §3, §4

CTSB = CTSB (Homo sapiens, UniProt P07858); test: as above; type: biochemical; settings: even at 10 µM
Description: as §1, §2, §3, §4

CTSK [2] = target: T1, CTSK; test: Recombinant cathepsin labeling by ABPs, in-gel fluorescence; type: binding; settings: ABP 5 µM, 1 h, 37 °C, pH 5.5, CTSK 0.5–280 ng
Description: The ABPs were tested for binding to recombinant CTSK compared to the closely related CTSB, CTSL, and CTSS, which are highly abundant and active in most biological samples. Using the in‐gel fluorescent analysis that detects the stable enzyme‐probe complex, active CTSK was labeled with each of the four probes, and significant selectivity was found in three probes GD32, GD37, and GD42 (Figure 1a). […] However, the minimum amount of active CTSK the remaining probes detected was much higher, ranging from 8 to 70 ngs, (Figure 1b).
as §1, with “activity. […]” for “activity.”
emission wavelengths of 370 and 460 nm, respectively. Cathepsin concentrations in the assay were 0.4 nM (CTSK) or 5 nM (CTSS, CTSB, and CTSL). […] For irreversible inhibitors, reaction data were fitted to the one-phase association formula in GraphPad Prism 9 software: Y=Y0 + (Plateau-Y0)*(1-exp(-K*X)) where in this case Y0 and Y represent fluorescence signal at times 0 and t, respectively, K represent the observed reaction rate kobs and X the inhibitor concentration. […]
reaction was stopped and samples were analyzed as described above. […]

CTSS, sequence (P25774 115-331): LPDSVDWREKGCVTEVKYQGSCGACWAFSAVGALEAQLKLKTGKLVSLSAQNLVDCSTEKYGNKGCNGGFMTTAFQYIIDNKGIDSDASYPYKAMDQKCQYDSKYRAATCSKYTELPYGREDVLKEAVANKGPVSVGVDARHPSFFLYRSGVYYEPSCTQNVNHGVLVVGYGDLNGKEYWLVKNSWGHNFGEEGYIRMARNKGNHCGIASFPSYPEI

| inhibition of recombinant cathepsin (CTSS) | IC50 (CTSK [1]) | inhibition of recombinant cathepsin (CTSB) | minimum amount of active CTSK detected (CTSK [2]) | Compound |
| --- | --- | --- | --- | --- |
| not inhibiting | 561 nM | not inhibiting | – | C#CCNC(=O)[C@H](CC(C)C)N[C@@H](c1ccc(-c2ccc(S(=O)(=O)CCNC(=O)OC(C)(C)C)cc2)cc1)C(F)(F)F [GD30] |
| – | – | – | 0.5 ng | C#CCNC(=O)[C@H](CC(C)C)N[C@@H](c1ccc(-c2ccc(S(=O)(=O)CCNC(=O)CCCCC[N+]3=C(/C=C/C=C/C=C4/N(C)c5ccc(S(=O)(=O)O)cc5C4(C)C)C(C)(C)c4cc(S(=O)(=O)O)ccc43)cc2)cc1)C(F)(F)F [GD32] |
